One assay concerns the target T1, human PPARgamma (Homo sapiens, UniProt P37231).
T1 construct: human PPARgamma receptor (amino acids 1152-Y475); expressed in transfected cells; host or cells: HEK cells (transiently transfected, pcDNA3-GAL4-humanPPARgammaLBD)
T1 sequence (P37231 182-477 isoform P37231-2 limits assumed): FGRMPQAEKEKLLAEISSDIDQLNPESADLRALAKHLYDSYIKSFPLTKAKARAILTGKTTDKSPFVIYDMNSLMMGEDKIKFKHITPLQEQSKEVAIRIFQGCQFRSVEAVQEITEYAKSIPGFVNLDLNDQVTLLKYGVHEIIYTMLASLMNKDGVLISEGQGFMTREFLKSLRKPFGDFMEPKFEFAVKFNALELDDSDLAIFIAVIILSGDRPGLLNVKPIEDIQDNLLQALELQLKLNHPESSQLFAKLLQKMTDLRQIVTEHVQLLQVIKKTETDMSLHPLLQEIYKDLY
Briefly: Cellular PPARgamma assay (transiently transfected HEK cells, luciferase reporter). Type of assay: cell-based. The note with it: GAL4-humanPPARgammaLBD, firefly/Renilla luciferase ratio, 48 h. An excerpt: 4) Determination of EC50 Values of PPAR Agonists in the Cellular PPARgamma Assay
A transient transfection system is employed to determine the cellular PPARgamma activity of PPAR agonists. It is based on the use of a luciferase reporter plasmid (pGL3basic-5xGAL4-TK) and of a PPARgamma expression plasmid (pcDNA3-GAL4-humanPPARgammaLBD). Both plasmids are transiently transfected into human embryonic kidney cells (HEK cells). There is then expression in these cells of the fusion protein GAL4-humanPPARgammaLBD which binds to the GAL4 binding sites of the reporter plasmid. In the presence of a PPARgamma-active ligand, the activated fusion protein GAL4-humanPPARgammaLBD induces expression of the luciferase reporter gene, which can be detected in the form of a chemiluminescence signal after addition of a luciferase substrate. As a difference from the stably transfected PPARalpha reporter cell line, in the cellular PPARgamma assay the two components (luciferase reporter plasmid and PPARgamma expression plasmid) are transiently transfected into HEK cells because stable and permanent expression of the PPARgamma fusion protein is cytotoxic.
The luciferase reporter plasmid pGL3basic-5xGAL4-TK is based on the vector pGL3basic from Promega. The reporter plasmid is prepared by cloning five binding sites of the yeast transcription factor GAL4 (each binding site with the sequence 5′-CTCGGAGGACAGTACTCCG-3′), together with a 160 bp-long thymidine kinase promoter section (Genbank Accession #AF027128) 5′-upstream into pGL3basic. 3′-downstream of the thymidine kinase promoter is the complete luciferase gene from Photinus pyralis (Genbank Accession # Ml 5077), which is already a constituent of the plasmid pGL3basic used. The cloning and sequencing of the reporter plasmid pGL3basic-5xGAL4-TK took place in analogy to the description in Sambrook J. et. al. (Molecular cloning, Cold Spring Harbor Laboratory Press, 1989).
The PPARgamma expression plasmid pcDNA3-GAL4-humanPPARgammaLBD was prepared by first cloning the cDNA coding for amino acids 1-147 of the yeast transcription factor GAL4 (Genbank Accession #P04386) into the plasmid pcDNA3 (from Invitrogen) 3′-downstream of the cytomegalovirus promoter. Subsequently, the cDNA of the ligand-binding domain (LBD) of the human PPARgamma receptor (amino acids […]; Accession #g1480099) 3′-downstream of the GAL4 DNA binding domain was cloned. Cloning and sequencing of the PPARgamma expression plasmid pcDNA3-GAL4-humanPPARgammaLBD again took place in analogy to the description in Sambrook J. et. al. (Molecular cloning, Cold Spring Harbor Laboratory Press, 1989). Besides the luciferase reporter plasmid pGL3basic-5xGAL4-TK and the PPARgamma expression plasmid pcDNA3-GAL4-humanPPARgammaLBD, also used for the cellular PPARgamma assay are the reference plasmid pRL-CMV (from Promega) and the plasmid pBluescript SK(+) from Stratagene. All four plasmids were prepared using a plasmid preparation kit from Qiagen, which ensured a plasmid quality with a minimal endotoxin content, before transfection into HEK cells.
The activity of PPARgamma agonists is determined in a 4-day assay which is described below. Before the transfection, HEK cells were cultivated in DMEM medium (#41965-039, Invitrogen) which was mixed with the following additions: 10% FCS (#16000-044, Invitrogen),1% penicillin-streptomycin solution (#15140-122, Invitrogen) and 2 mM L-glutamine (#25030-024, Invitrogen).
Solution A, a transfection mixture which contains all four plasmids previously described in addition to DMEM medium, was prepared. […]
For orientation: Reporter assays use an easily measured gene product as a stand-in for the process of interest.

A further assay concerns the target T2, human PPARalpha (Homo sapiens, UniProt Q07869).
T2 construct: human PPARalpha receptor (amino acids S167-Y468); expressed in transfected cells; host or cells: HEK cells (stably transfected, pcDNA3, CMV promoter)
T2 sequence (Q07869 167-468): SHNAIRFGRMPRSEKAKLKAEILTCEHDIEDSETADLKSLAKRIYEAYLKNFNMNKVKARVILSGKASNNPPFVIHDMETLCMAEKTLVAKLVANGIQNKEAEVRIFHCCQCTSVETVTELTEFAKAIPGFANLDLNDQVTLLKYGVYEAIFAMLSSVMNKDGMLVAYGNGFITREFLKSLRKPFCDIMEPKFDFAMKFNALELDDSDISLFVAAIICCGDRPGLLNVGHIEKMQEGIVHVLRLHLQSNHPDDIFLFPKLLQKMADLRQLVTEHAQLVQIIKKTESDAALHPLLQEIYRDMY
The assay is described as follows: Cellular PPARalpha assay (stably transfected HEK luciferase reporter cell line). It is filed as cell-based. The note with it: GR-GAL4-humanPPARalpha-LBD, 24 h. As for the experimental part: 1) Determination of EC50 Values of PPAR Agonists in the Cellular PPARalpha Assay
The activity of the novel compounds of the present invention was tested as follows The potency of substances which bind to human PPARalpha and activate it in an agonistic manner is analyzed using a stably transfected HEK cell line (HEK=human embryo kidney) which is referred to here as PPARalpha reporter cell line. It contained two genetic elements, a luciferase reporter element (pdeltaM-GAL4-Luc-Zeo) and a PPARalpha fusion protein (GR-GAL4-humanPPARalpha-LBD) which mediates expression of the luciferase reporter element depending on a PPARalpha ligand. The stably and constitutively expressed fusion protein GR-GAL4-humanPPARalpha-LBD binds in the cell nucleus of the PPARalpha reporter cell line via the GAL4 protein portion to the GAL4 DNA binding motifs 5′-upstream of the luciferase reporter element which was stably integrated in the genome of the cell line. There is only little expression of the luciferase reporter gene without addition of a PPARalpha ligand if fatty acid-depleted fetal calf serum (cs-FCS) is used in the assay. PPARalpha ligands bind and activate the PPARalpha fusion protein and thereby bring about expression of the luciferase reporter gene. The luciferase which is formed can be detected by means of chemiluminescence via an appropriate substrate.
The PPARalpha reporter cell line was prepared in two steps. Firstly, the luciferase reporter element was constructed and stably transfected into HEK cells. For this purpose, five binding sites of the yeast transcription factor GAL4 (in each case 5′-CGGAGTACTGTCCTCCGAG-3′) were cloned in 5′-upstream of a 68 bp-long minimal MMTV promoter (Genbank Accession #V01175). The minimal MMTV promoter section contains a CCAAT box and a TATA element in order to enable efficient transcription by RNA polymerase II. The cloning and sequencing of the GAL4-MMTV construct took place in analogy to the description of Sambrook J. et. al. (Molecular Cloning, Cold Spring Harbor Laboratory Press, 1989). Which is hereby incorporated by reference herein.
The complete Photinus pyralis luciferase gene (Genbank Accession #M15077) was cloned in 3′-downstream of the GAL4-MMTV element. After sequencing, the luciferase reporter element consisting of five GAL4 binding sites, MMTV promoter and luciferase gene was subcloned into a plasmid which confers zeozin resistance in order to obtain the plasmid pdeltaM-GAL4-Luc-Zeo. This vector was transfected into HEK cells in accordance with the statements in Ausubel, F.M. et al. (Current Protocols in Molecular Biology, Vol. 1-3, John Wiley & Sons, Inc., 1995).
In a second step, the PPARalpha fusion protein (GR-GAL4-humanPPARalpha-LBD) was introduced into the stable cell clone described. For this purpose, initially the cDNA coding for the N-terminal 76 amino acids of the glucocorticoid receptor (Genbank Accession # P04150) was linked to the cDNA section coding for amino acids 1-147 of the yeast transcription factor GAL4 (Genbank Accession #P04386). The cDNA of the ligand-binding domain of the human PPARalpha receptor (amino acids S167-Y468; Genbank Accession #S74349) was cloned in at the 3′ end of this GR-GAL4 construct. The fusion construct prepared in this way (GR-GAL4-humanPPARalpha-LBD) was subcloned into the plasmid pcDNA3 (from Invitrogen) in order to enable constitutive expression therein by the cytomegalovirus promoter. This plasmid was linearized with a restriction endonuclease and stably transfected into the previously described cell clone containing the luciferase reporter element. The finished PPARalpha reporter cell line which contains a luciferase reporter element and constitutively expresses the PPARalpha fusion protein (GR-GAL4-humanPPARalpha-LBD) was isolated by selection with zeozin (0.5 mg/ml) and G418 (0.5 mg/ml).
The activity of PPARalpha agonists was determined in a 3-day assay which is described below: […]

As a reminder, the EC50 is the midpoint of the concentration-response curve. For the compound `CC(C)c1oc(-c2ccc(C(F)(F)F)cc2)nc1COC[C@@H]1CCC[C@H](COC(C)(C)C(=O)O)C1` [Example 6, 2-{(1S,3R)-3-[5-Isopropyl-2-(4-trifluoromethylphenyl)oxazol-4-ylmethoxymethyl]cyclohexylmethoxy}-2-methylpropionic acid], the results for the EC50 at human PPARgamma and at human PPARalpha were 1880 nM and 19.3 nM, respectively.

As for `CCc1oc(-c2ccc(C(F)(F)F)cc2)nc1COC[C@@H]1CCC[C@H](COC(C)(C)C(=O)O)C1` [Example 1, 2-{(1S,3R)-3-[5-Ethyl-2-(4-trifluoromethylphenyl)oxazol-4-ylmethoxymethyl]cyclohexylmethoxy}-2-methylpropionic acid], the EC50 on human PPARgamma turned out to be 1560 nM; at human PPARalpha, 3.6 nM.

In the case of `Cc1ccc(-c2nc(COC[C@H]3CCC[C@@H](COC(C)(C)C(=O)O)C3)c(C(C)C)o2)cc1C` [Example 12, 2-{(1R,3S)-3-[2-(3,4-Dimethylphenyl)-5-isopropyloxazol-4-ylmethoxymethyl]cyclohexylmethoxy}-2-methylpropionic acid], the results for the EC50 on human PPARgamma and on human PPARalpha were 133 nM and 5.5 nM, respectively.

In the case of `Cc1ccc(-c2nc(COC[C@@H]3CCC[C@H](COC(C)(C)C(=O)O)C3)c(C(C)C)o2)cc1C` [Example 8, 2-{(1S,3R)-3-[2-(3,4-Dimethylphenyl)-5-isopropyloxazol-4-ylmethoxymethyl]cyclohexylmethoxy}-2-methylpropionic acid], the EC50 turned out to be 1500 nM at human PPARgamma and 37.5 nM on human PPARalpha.

As for `CCc1oc(-c2ccc3ccccc3c2)nc1COC[C@H]1CCC[C@@H](COC(C)(C)C(=O)O)C1` [Example 19, 2-[(1R,3S)-3-(5-Ethyl-2-naphthalen-2-yl-oxazol-4-ylmethoxymethyl)cyclohexylmethoxy]-2-methylpropionic acid], the EC50 on human PPARgamma came out at 192 nM; at human PPARalpha it was 1.8 nM.

Take `COc1cccc(-c2nc(COC[C@@H]3CCC[C@H](COC(C)(C)C(=O)O)C3)c(C(C)C)o2)c1` [Example 10, 2-{1(1S,3R)-3-[5-Isopropyl-2-(3-methoxyphenyl)oxazol-4-ylmethoxymethyl]cyclohexylmethoxy}-2-methylpropionic acid]: the EC50 amounted to 672 nM at human PPARgamma and 381 nM on human PPARalpha.

On to `CCc1oc(-c2ccc(C(C)(C)C)cc2)nc1COC[C@@H]1CCC[C@H](COC(C)(C)C(=O)O)C1` [Example 5, 2-{1(1S,3R)-3-[2-(4-tert-butylphenyl)-5-ethyloxazol-4-ylmethoxymethyl]cyclohexylmethoxy}-2-methylpropionic acid], for which the EC50 worked out at 266 nM at human PPARgamma and 14.3 nM on human PPARalpha.

Consider “2-{(1R,3S)-3-[5-Isopropyl-2-(3-methoxyphenyl)oxazol-4-ylmethoxymethyl]cyclohexylmethoxy}-2-methylpropionic acid [Example 15]”, for which the EC50 at human PPARgamma came out at 150 nM; on human PPARalpha, 71.7 nM.

Consider `CCc1oc(-c2ccccc2C(F)(F)F)nc1COC[C@@H]1CCC[C@H](COC(C)(C)C(=O)O)C1` [Example 3, 2-{(1S,3R)-3-[5-Ethyl-2-(2-trifluoromethylphenyl)-oxazol-4-ylmethoxymethyl]cyclohexylmethoxyl}-2-methylpropionic acid], for which the figures for the EC50 at human PPARgamma and on human PPARalpha were 2760 nM and 152 nM, respectively.

In the case of `Cc1oc(-c2ccc(Oc3ccccc3)cc2)nc1COC[C@H]1CCC[C@@H](COC(C)(C)C(=O)O)C1` [Example 20, 2-Methyl-2-{(1R,3S)-3-[5-methyl-2-(4-phenoxyphenyl)oxazol-4-ylmethoxymethyl]cyclohexylmethoxy}propionic acid], the EC50 at human PPARgamma was 71.4 nM; on human PPARalpha, 149 nM.

In the case of `Cc1oc(-c2ccc(C(C)C)cc2)nc1COCC1CCCC(COC(C)(C)C(=O)O)C1` (stereo not drawn) [**], the EC50 on human PPARgamma was more than 10000 nM; at human PPARalpha, 1.3 nM.

Take `CCc1oc(-c2ccc(C)c(C)c2)nc1COC[C@@H]1CCC[C@H](COC(C)(C)C(=O)O)C1` [Example 4, 2-{(1S,3R)-3-[2-(3,4-Dimethylphenyl)-5-ethyloxazol-4-ylmethoxymethyl]cyclohexylmethoxy}-2-methylpropionic acid]: the figures for the EC50 on human PPARgamma and at human PPARalpha were 324 nM and 1.9 nM, respectively.

Source of the values: patent publication US7538131B2, “2-{-3-′2-(phenyl)-oxazol-4-ylmethoxymethyl-cyclohexylmethoxy}-propionic acid derivatives useful as peroxisome proliferator-activated receptor (PPAR) ligands for the treatment of hyperlipidemia and diabetes” (Sanofi-Aventis Deutschland GmbH, priority 2004, dated 2009).
